{"source": "patent US6962930B1", "about": "“Compounds, compositions and method suitable for amelioration of withdrawal syndromes and withdrawal-induced brain damage” (Lohocla Research Corporation, priority 1997, dated 2005)", "key": {"[1]": {"biological_target": "T1, strychnine-insensitive glycine binding site on the NMDA receptor (Rattus norvegicus, UniProt P35439)", "T1 construct": "from tissue; host or cells: rat cerebral cortex, crude synaptic (buffy coat) membranes", "assay": "[3H]5,7-DCKA binding to rat cortical membranes", "settings": "20 nM [3H]5,7-DCKA", "method": "Male Sprague-Dawley rats were killed, their brains removed, and their cerebral cortices dissected and binding of [^3H]5,7-dichlorokynurenate ([^3H]5,7-DCKA) assayed. [^3H]5,7-DCKA binding assays were performed in crude synaptic membranes prepared by a modification of the method of Jones, et al., J. Pharmacol. Methods, 21 161–168 (1989) the relevant disclosures of which are incorporated herein by reference. The pelleted “buffy coat”fraction was obtained by centrifugation and frozen at about −80° C. for at least 18 hours. On the day that the binding assays were performed, the pelleted membranes were resuspended in 50 mM HEPES-KOH buffer (pH 7.8) containing 0.08% TRITON® X-100. After stirring for about 30 min at about 4° C., the membranes were pelleted by recentrifugation and then washed twice by resuspension in buffer and centrifugation.\nBinding assays were performed in 0.5 ml volume using 150–200 μg of tissue, 20 nM [^3H]5,7-DCKA and 3–300 μM DCUKA or MeO-DCUKA or 1–100 μM DCUK-OMe (all concentrations are final concentrations in 0.6% dimethyl sulfoxide (DMSO)). Incubations were performed for about 45 min at about 4° C. followed by termination by centrifugation. Bound radioactivity was quantitated by liquid scintillation spectroscopy. Non-specific binding was defined with 1 mM glycine."}, "[2]": {"biological_target": "voltage-sensitive sodium channels", "assay": "[3H]BTX binding to rat cortical synaptosomes", "settings": "non-depolarizing conditions, none = no displacement at 100 μM, read-out: IC50 (μM) [3H]BTX binding"}, "[3]": {"biological_target": "T2, NMDA receptor ion channel (Rattus norvegicus, UniProt P35439)", "T2 construct": "from tissue; host or cells: rat cerebral cortex, crude synaptic (buffy coat) membranes", "assay": "[3H]dizocilpine binding to rat cortical membranes", "settings": "no exogenous glycine; 100 or 300 μM DCUKA, 30 or 100 μM DCUK-OMe; attenuated by 1 μM glycine", "method": "[^3H]Dizocilpine (MK-801) binding assays were performed in a volume of 1 ml containing 100–150 μg of tissue, 5 nM [^3H]dizocilpine, 10 μM L-glutamate, 30 μM MgSO4, and 100 or 300 μM DCUKA or 30 or 100 μM DCUK-OMe, in 10 mM HEPES-KOH buffer (pH 7.4 at 23° C.). Incubations were for 30 minutes at room temperature. The reaction mixtures were filtered over GF/B filters presoaked in 0.1% polyethyleneimine. Bound radioactivity was quantitated by liquid scintillation spectroscopy. Non-specific binding was defined with 20 μM dizocilpine. Under these conditions, [^3H]dizocilpine binding can be used as a measure of the activation of the NMDA receptor ion channel by glycine. See, for example, Wong, E. H. F., et al.,“ GLYCINE MODULATES [^3H]MK-801BINDING TO THE NMDA RECEPTOR IN RAT BRAIN.” Eur. J. Pharmacol., 142 487–488 (1987).\nThe results obtained are plotted in FIG. 2 where open bars indicate no glycine added and hatched bars indicate 1 μM glycine added to the incubation. Data were statistically analyzed by 2-way analysis of variance (ANOVA) followed by Tukey test. In FIG. 2, * denotes P<0.05 compared to the zero concentration of DCUKA or DCUK-OMe within a given glycine condition, while ** denotes P<0.05 compared to the 0 glycine condition at a given concentration of DCUKA or DCUK-OMe. […]"}, "[4]": {"biological_target": "T3, rabbit cardiac L-type VSCC (Oryctolagus cuniculus, UniProt P15381)", "T3 construct": "expressed in transfected cells; host or cells: Xenopus laevis oocytes, cRNA injection", "T3 sequence (P15381 whole entry)": "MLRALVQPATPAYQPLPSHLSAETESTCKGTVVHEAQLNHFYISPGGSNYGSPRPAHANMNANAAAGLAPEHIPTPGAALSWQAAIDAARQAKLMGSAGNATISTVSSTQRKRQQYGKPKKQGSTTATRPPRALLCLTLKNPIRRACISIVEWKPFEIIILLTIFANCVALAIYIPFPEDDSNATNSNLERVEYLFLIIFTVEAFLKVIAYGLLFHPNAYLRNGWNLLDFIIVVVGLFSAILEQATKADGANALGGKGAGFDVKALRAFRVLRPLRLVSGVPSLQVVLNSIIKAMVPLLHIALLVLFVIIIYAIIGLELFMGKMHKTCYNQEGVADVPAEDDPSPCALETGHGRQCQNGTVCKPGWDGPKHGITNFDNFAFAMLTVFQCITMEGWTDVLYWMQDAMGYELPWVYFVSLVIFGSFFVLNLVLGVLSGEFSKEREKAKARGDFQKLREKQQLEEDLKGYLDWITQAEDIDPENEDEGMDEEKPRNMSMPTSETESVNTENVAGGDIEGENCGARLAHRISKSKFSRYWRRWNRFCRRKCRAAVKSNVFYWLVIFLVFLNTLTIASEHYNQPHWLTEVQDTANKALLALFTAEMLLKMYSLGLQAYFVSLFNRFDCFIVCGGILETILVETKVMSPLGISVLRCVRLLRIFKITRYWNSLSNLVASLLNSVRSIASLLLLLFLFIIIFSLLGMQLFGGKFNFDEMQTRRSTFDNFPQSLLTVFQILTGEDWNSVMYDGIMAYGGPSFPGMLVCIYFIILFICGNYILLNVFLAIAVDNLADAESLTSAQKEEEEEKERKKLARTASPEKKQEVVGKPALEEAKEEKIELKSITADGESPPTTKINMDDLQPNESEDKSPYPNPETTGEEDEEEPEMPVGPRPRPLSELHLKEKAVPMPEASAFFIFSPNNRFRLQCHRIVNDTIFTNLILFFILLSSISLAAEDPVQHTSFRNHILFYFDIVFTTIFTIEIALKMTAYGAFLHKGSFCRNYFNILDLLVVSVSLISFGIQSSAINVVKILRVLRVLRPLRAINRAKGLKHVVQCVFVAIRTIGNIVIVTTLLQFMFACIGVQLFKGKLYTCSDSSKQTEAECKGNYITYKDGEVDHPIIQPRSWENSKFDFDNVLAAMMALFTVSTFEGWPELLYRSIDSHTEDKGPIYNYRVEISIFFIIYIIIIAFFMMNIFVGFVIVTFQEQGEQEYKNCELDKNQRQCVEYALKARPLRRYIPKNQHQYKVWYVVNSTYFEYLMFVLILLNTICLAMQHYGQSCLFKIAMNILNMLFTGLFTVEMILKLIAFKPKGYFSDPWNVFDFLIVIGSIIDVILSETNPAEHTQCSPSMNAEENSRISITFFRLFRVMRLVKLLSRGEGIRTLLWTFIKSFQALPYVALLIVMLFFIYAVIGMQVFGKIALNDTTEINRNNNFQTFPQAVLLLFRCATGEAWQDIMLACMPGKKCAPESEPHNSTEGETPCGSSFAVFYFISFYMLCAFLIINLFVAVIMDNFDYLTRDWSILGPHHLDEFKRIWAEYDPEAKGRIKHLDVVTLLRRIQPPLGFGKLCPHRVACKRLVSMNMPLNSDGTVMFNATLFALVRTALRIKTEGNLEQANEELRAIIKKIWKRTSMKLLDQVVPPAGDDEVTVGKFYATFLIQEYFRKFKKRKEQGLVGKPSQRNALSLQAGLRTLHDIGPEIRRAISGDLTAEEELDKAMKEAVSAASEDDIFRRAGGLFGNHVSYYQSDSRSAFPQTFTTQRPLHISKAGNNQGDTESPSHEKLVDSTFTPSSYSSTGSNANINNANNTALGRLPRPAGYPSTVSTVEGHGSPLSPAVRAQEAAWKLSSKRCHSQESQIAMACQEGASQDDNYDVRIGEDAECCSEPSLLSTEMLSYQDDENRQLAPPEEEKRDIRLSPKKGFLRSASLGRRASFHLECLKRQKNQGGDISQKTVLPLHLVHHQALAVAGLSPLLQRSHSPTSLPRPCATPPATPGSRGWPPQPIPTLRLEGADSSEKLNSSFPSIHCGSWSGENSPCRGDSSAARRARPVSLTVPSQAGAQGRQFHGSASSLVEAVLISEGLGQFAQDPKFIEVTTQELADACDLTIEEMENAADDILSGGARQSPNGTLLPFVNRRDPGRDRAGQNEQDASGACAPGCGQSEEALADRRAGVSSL", "assay": "Currents through VSCCs in oocytes, two electrode voltage clamp", "format": "cell-based", "settings": "50 μM, Li+ currents, holding −80 mV, test −20 mV", "method": "In other studies, Stage V and VI oocytes were prepared from Xenopus laevis and maintained using the procedures described in Example 3. Oocytes were injected with cRNA encoding the rabbit cardiac L-type VSCC αic, together with the ancillary subunits α2/β and β2b in a 1:1:1 molar ratio. Macroscopic currents were recorded 4–6 days following injection using the two electrode voltage clamp technique. During recording, oocytes were maintained at room temperature in a perfusion chamber and perfused (1 ml/min) continuously with a buffer containing (in mM) 100 LiCl, 10 HEPES, 10 HEDTA, 14 TEA-Cl, 0.015 CaCl2, (effective free calcium concentration ˜3 nM), pH 7.4 with TEA-OH. The monovalent ion Li^+was used as the charge carrier rather than Ba^2+in these studies because high concentrations of divalent ions promoted precipitation of DCUKA.\nDCUKA was made up as a stock solution in DMSO and used in the studies at a concentration of 50 μM, resulting in a final DMSO percentage of 0.25%. This concentration of DMSO enhanced Li^+currents to a small extent, however, this was controlled for by exchanging between solutions that were identical except for presence/absence of the drug itself. […] Li^+currents were recorded using an OC-725B amplifier (Warner Instruments), filtered at 1 kHz (4-pole Bessel filter, Warner Instruments) and sampled at 2 kHz. Voltage pulses of 250 ms duration were given every 15 sec. […]"}}}
{"smiles": "COC(=O)c1cc(NC(=O)N(c2ccccc2)c2ccccc2)c2c(Cl)cc(Cl)cc2n1", "note": "[DCUK-OMe, (N,N-diphenyl)-4-ureido-5,7-dichloro-2-carboxy-quinoline methyl ester]", "values": [{"measurement": "IC50", "setting": "[1]", "value": 5, "unit": "µM"}, {"measurement": "IC50", "setting": "[2]", "value": 25, "unit": "µM"}, {"measurement": "effect on [3H]dizocilpine binding", "setting": "[3]", "value": "concentration-related decrease in [^3H]dizocilpine binding"}]}
{"smiles": "O=C(O)c1cc(NC(=O)N(c2ccccc2)c2ccccc2)c2c(Cl)cc(Cl)cc2n1", "note": "[DCUKA, (N,N-diphenyl)-4-ureido-5,7-dichloro-2-carboxy-quinoline]", "values": [{"measurement": "IC50", "setting": "[1]", "value": 22, "unit": "µM"}, {"measurement": "IC50", "setting": "[2]", "value": 76, "unit": "µM"}, {"measurement": "effect on [3H]dizocilpine binding", "setting": "[3]", "value": "concentration-related decrease in [^3H]dizocilpine binding"}, {"measurement": "decrement in the current through VSCCs", "setting": "[4]", "value": "less than 20%"}]}
